The values below come from patent publication US4269855A, “(3-Alkylamino-2-hydroxypropoxy)-furan-2-carboxylic acid anilides and physiologically tolerated acid addition salts thereof and medicaments containing them” (A. Nattermann & Cie. GmbH, priority 1979, dated 1981).

pIC50: −log10 of the molar value. Counter-ions that a name gives are not always drawn.

A short description of data set [1]: in vivo. As to the method:
The acute toxicity was determined on NMRI mice by intravenous or oral administration of increasing doses of the compounds of the invention. The death rates were determined within the 7-day follow-up period and the average lethal dose was determined by probit analysis.

The target of data set [2] is T1, β-receptor (Cavia porcellus, UniProt H0W3H1). Put plainly: Inhibition of isoprenalin-induced increase in pulse rate, isolated guinea pig right auricle. The arrangement: species or system guinea pig (Pirbright White). The following applies: Bath, isoprenalin 5.8×10^-9 molar, probit analysis, read-out: ED50, inhibition of increase in pulse rate induced by isoprenalin.
T1 sequence (H0W3H1 1-470): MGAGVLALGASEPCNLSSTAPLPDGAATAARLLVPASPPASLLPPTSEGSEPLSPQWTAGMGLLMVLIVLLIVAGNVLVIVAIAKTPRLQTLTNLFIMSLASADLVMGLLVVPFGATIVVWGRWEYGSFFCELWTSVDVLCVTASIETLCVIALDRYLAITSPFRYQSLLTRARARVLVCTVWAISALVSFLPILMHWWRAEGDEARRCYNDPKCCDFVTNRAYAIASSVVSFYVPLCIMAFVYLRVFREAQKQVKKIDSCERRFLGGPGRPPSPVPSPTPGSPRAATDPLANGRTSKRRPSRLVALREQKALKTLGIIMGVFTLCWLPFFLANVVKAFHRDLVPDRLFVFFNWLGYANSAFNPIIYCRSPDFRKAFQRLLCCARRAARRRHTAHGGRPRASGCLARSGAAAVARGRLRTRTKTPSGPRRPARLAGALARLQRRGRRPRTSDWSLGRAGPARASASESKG

In data set [3] the target is β-receptor (Canis lupus familiaris, UniProt P79148). As to the kind of experiment: Inhibition of isoprenalin-induced increase in contractile force (dp/dtmax), anaesthetised dogs. The note with it: for ED50: dog, anaesthetised dogs, isoprenalin 0.5 μg/kg i.v., determined graphically. Format: in vivo, mongrel dogs.
β-receptor (Canis lupus familiaris, UniProt P79148), sequence (P79148 whole entry): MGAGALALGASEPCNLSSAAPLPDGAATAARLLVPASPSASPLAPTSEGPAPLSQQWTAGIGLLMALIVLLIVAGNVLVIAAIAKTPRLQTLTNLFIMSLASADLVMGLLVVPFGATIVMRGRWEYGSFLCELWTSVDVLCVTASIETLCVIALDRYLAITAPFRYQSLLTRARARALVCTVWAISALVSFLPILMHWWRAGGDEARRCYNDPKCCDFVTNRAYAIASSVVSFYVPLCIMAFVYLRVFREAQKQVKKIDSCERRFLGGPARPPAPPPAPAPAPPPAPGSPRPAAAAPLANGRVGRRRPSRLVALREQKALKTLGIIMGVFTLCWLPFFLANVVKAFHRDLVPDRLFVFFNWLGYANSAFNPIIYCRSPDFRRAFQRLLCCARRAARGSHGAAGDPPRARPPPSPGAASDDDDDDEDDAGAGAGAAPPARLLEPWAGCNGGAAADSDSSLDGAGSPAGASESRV
Description: (§1) The ventricular pressure of mongrel dogs, anesthetized with chloralose-urethane, was determined, together with other circulation parameters, with the aid of a Millar tip catheter (type PC 350 A, Millar Instruments, Houston, Tex.) introduced into the left heart ventricle, and the maximum rate of pressure increase (dp/dtmax) was determined by differentiation (HSE operational amplifier, Hugstetten). This rate serves as a measure of the contractile force.
In data set [4] the test system is β-receptor. Put plainly: β-receptor blocking action, isolated organs and whole animal (overall statement). The following applies: in words.
Description: as §1
Data set [5] concerns the target T1, β-receptor. As to the kind of experiment: Inhibition of isoprenalin-induced increase in contractile force, isolated guinea pig left auricle. Further details: species or system guinea pig (Pirbright White). The note with it: Bath, isoprenalin 3.2×10^-8 molar, probit analysis, read-out: ED50, inhibition of increase in contractile force induced by isoprenaline.

As a reminder, the LD50 is the dose at which mortality reaches 50%. High values mean a less toxic substance, low ones a more toxic substance. By ED50 is commonly meant the dose that gives a 50% effect, or the effect in half of the subjects. The low end stands for greater potency, the high end for weaker potency. As to `CC(C)(C)NCC(O)COc1ccccc1NC(=O)c1ccco1` (centres unmarked) [Example 1, 2'-(2-hydroxy-3-tert.-butylaminopropoxy)-furan-2-carboxylic acid anilide], the selectivity ratio in data set [1] (in vivo) is 4560. For the same molecule, the toxicity entry in data set [1] (in words) is given as “very favorable”. Also, the LD50 at 168 h in data set [1] (mouse, in vivo, iv) was found to be 55 mg/kg; in data set [1] (mouse, in vivo, po) it was 502 mg/kg. In addition, the “"therapeutic range" quotient (LD50/ED50), times as high as the compounds already known” value in data set [1] (versus propranolol hydrochloride and practolol hydrochloride) is listed as 1.5-3 times. Besides, the results for the pIC50 in data set [2] and in data set [5] were 7.01 and 6.54, respectively. The median effective dose (ED50) in data set [3] (intraduodenal) amounted to 0.11 mg/kg; in data set [3] (intravenous), 0.025 mg/kg. Besides, in data set [3] (intraduodenal, in words), the “action when administered intraduodenally” value is “good action”. Moreover, the “β-receptor blocking action / pharmacological activity” value in data set [4] is “strong β-receptor blocking action both on isolated organs and on the whole animal”.
For `CC(=O)Nc1ccc(OCC(O)CNC(C)C)cc1` (centres unmarked) [Practolol Hydrochloride, reference compound], the selectivity ratio in data set [1] (in vivo) stood at 3190. Also, the “LD50, acute toxicity” value in data set [1] (mouse, in vivo, iv, 168 h) was found to be 148 mg/kg. In addition, the LD50 at 168 h in data set [1] (mouse, in vivo, po) was 2870 mg/kg. Further, the pIC50 in data set [2] is 6.15; in data set [5], 5.64. Moreover, the ED50 in data set [3] (intraduodenal) stood at 0.9 mg/kg.
